Data: patent US8142769B2, “Preparation and xenotransplantation of porcine islets” (Diabcell Pty Ltd, priority 2000, dated 2012)

Test system: porcine islets
Experiment: Static glucose stimulation (SGS): in vitro insulin secretion of porcine islets in culture
Type: cell-based
Excerpt: Static glucose stimulation (SGS) is used to assess in vitro function of the porcine islets by exposing them to low and high concentrations of glucose and theophylline. Determination of the in vitro insulin secretory capacity is undertaken on both free islets (after 3 days in culture) and after their subsequent encapsulation.
Keep the cells 3 days in culture before Static Glucose Stimulation (SGS). SGS involves exposure of the cells to low and high concentration of glucose to check insulin production. […]
Islet endocrine function was assessed after 3 days in culture via static glucose stimulation.

[1] = Incubated 24 hrs with 1.0 ug/ml IgF-1

Human Insulin-like Growth Factor I [IgF-1]
Insulin secretion in response to 19.4 mM Glucose + 10 mM Theophylline, increase compared to control (3 days post IgF-1 exposure): 1.5-fold increase
Insulin secretion in response to 19.4 mM Glucose + 10 mM Theophylline, increase compared to control (14 days post IgF-1 exposure): 1.3-fold increase
Concentration in culture sufficient to produce optimal insulin secretion during glucose challenge (IgF-1 tested at 0.1 and 1.0 ug/ml): 0.1 µg/mL
Insulin secretion in response to 19.4 mM Glucose + 10 mM Theophylline after 3 days culture post isolation (Incubated 24 hrs with 0.1 ug/ml IgF-1, concentration comparison, different islet preparation): 58 uU/hr/100 IEQ
Insulin secretion in response to 19.4 mM Glucose + 10 mM Theophylline after 3 days culture post isolation (Incubated 24 hrs with 0.1 ug/ml IgF-1 after isolation, control 75.2): 236 uU/hr/100 IEQ
Insulin secretion in response to 19.4 mM Glucose + 10 mM Theophylline 7 days post isolation [1]: 57.5 uU/hr/100 IEQ
Insulin secretion in response to 19.4 mM Glucose + 10 mM Theophylline after 3 days culture post isolation [1]: 56.8 uU/hr/100 IEQ
Insulin secretion in response to 19.4 mM Glucose + 10 mM Theophylline after 3 days culture post isolation (Incubated 3 days with 0.1 ug/ml IgF-1 without Nicotinamide, media without nicotinamide alone 55.9): 47.6 uU/hr/100 IEQ
Insulin secretion in response to 19.4 mM Glucose + 10 mM Theophylline 7 days post isolation (Incubated 7 days with 0.1 ug/ml IgF-1): 58 uU/hr/100 IEQ
Increase of insulin response to glucose (porcine islets in culture exposed to IgF-1): ≤ 3 fold
Benefit of culturing the islets beyond a 24 hrs period post isolation (variations on the duration of IgF-1 exposure): no increased benefit

CCN(CC)CC(=O)Nc1c(C)cccc1C [Lignocaine, reference compound]
Increase in insulin secretion in response to glucose challenge (Lignocaine during digestion, after 3 days in culture): 3 fold
Insulin secretion in response to 19.4 mM Glucose + 10 mM Theophyline after 3 days culture post isolation (islets isolated by Collagenase digestion, with or without 1 mM Lignocaine): 163.8 uU/hr/100 IEQ

IgF-2: insulin-like growth factor expressed in many cell types, used in islet culture at 0.1 ug/ml
Effect on insulin production of porcine islet cells (0.1 ug/ml IgF-2, initial exposure of 24 hrs, transient to 3 days post exposure): appeared to increase insulin production
Insulin secretion in response to 19.4 mM Glucose + 10 mM Theophyline after 3 days culture post isolation (Incubated 24 hrs with 0.1 ug/ml IgF-2 day 1, control 75.2): 105.8/100 IEQ
Insulin secretion in response to 19.4 mM Glucose + 10 mM Theophyline after 3 days culture post isolation (Incubated 24 hrs with 0.1 ug/ml IgF-2 day 1, second table, control 39.8): 32 uU/hr/100 IEQ
Insulin secretion in response to 19.4 mM Glucose + 10 mM Theophyline after 7 days culture post isolation (Incubated 7 days with 0.1 ug/ml IgF-2, control 39.8): 38.4 uU/hr/100 IEQ
Effect on insulin production of the islet cells in response to glucose (prolonged exposure to IgF-2 beyond 24 hrs): failed to increase
